Test [1] in a line: Antiproliferative activity against human U-87 MG cells assessed as inhibition of cell proliferation measured after 72 hrs by CCK8 assay. It counts as functional, cell-based, U-87MG ATCC.
The next test relates to C6. Description: Antiproliferative activity against rat C6 cells assessed as inhibition of cell proliferation measured after 72 hrs by CCK8 assay. It counts as functional, cell-based. Conditions: C6, 72 h. For orientation: Formazan colour is commonly taken as a measure of viable cells.
For test [2], the system named is U-251. Nature of the test: Antiproliferative activity against human U-251 cells assessed as inhibition of cell proliferation measured after 72 hrs by CCK8 assay. The test is classed as functional, cell-based. Particulars: U-251, 72 h.
Test [3] deals with U-251. Nature of the test: Induction of apoptosis in human U-251 cells assessed as viable cells at 6 uM incubated for 72 hrs by Annexin V-FITC/PI staining based flow cytometry method (reference value: 96.22 %). The test is classed as functional. Particulars: read-out: Activity.
The test system of test [4] is U-251. Nature of the test: Induction of apoptosis in human U-251 cells assessed as necrotic cells at 6 uM incubated for 72 hrs by Annexin V-FITC/PI staining based flow cytometry method (Rvb =0.51 %). The test is classed as functional. A general note: Flow cytometry measures light scatter and fluorescence of single cells or particles in a stream.
Test [5] can be described thus: Induction of apoptosis in human U-87 MG cells assessed as late apoptotic cells at 1.20 uM incubated for 72 hrs by Annexin V-FITC/PI staining based flow cytometry method (reference value: 0.42 %). Particulars: dose 1.2 µM. It counts as functional, U-87MG ATCC.
Test [6] has as its system U-251. Description: Induction of apoptosis in human U-251 cells assessed as early apoptotic cells at 6 uM incubated for 72 hrs by Annexin V-FITC/PI staining based flow cytometry method (Rvb =1.96 %). The test is classed as functional.
Test [7] relates to U-251. Description: Induction of apoptosis in human U-251 cells assessed as late apoptotic cells at 6 uM incubated for 72 hrs by Annexin V-FITC/PI staining based flow cytometry method (Rvb =1.31 %). It counts as functional.
Test [8] concerns U-87MG ATCC. Description: Antitumor activity against human U-87 MG cells xenografted in BALB/c mouse assessed as decrease in tumor volume at 10 mg/kg,ip bid for 1 month. The test is classed as functional, organism-based. Conditions: time 1.0 months. Background: In xenograft studies the graft and the host belong to different species.
Test [9] in a line: Induction of apoptosis in human U-87 MG cells assessed as early apoptotic cells at 1.20 uM incubated for 72 hrs by Annexin V-FITC/PI staining based flow cytometry method (reference value: 2.53 %). The test is classed as functional, U-87MG ATCC. Conditions: dose 1.2 µM.
Test [10] is described as follows: Induction of apoptosis in human U-87 MG cells assessed as viable cells at 1.20 uM incubated for 72 hrs by Annexin V-FITC/PI staining based flow cytometry method (reference value: 96.84 %). The test is classed as functional, U-87MG ATCC. Conditions: read-out: Activity.
For test [11], the system named is U-87MG ATCC. Nature of the test: Antitumor activity against human U-87 MG cells xenografted in BALB/c mouse assessed as decrease in tumor weight at 10 mg/kg,ip bid for 1 month. The test is classed as functional, organism-based. Particulars: time 1.0 months.
The nature of test [12]: Induction of apoptosis in human U-87 MG cells assessed as necrotic cells at 1.20 uM incubated for 72 hrs by Annexin V-FITC/PI staining based flow cytometry method (reference value: 0.21 %). It counts as functional, U-87MG ATCC. Conditions: dose 1.2 µM.

Structures are written as SMILES. The source made the active and inactive calls. The calls are words filed in the database; no cut-off is given here.

By IC50 is commonly meant the point on the concentration scale where inhibition reaches its midpoint.

Turning to `COCCN1CCN(c2ccc(OC)cc2C(=O)Nc2ccc(CNC(=O)OCc3cccnc3)cc2)CC1`, the IC50 in test [1] turned out to be 3.47 µM; in the test with C6, 1.05 µM; in the test with U-251 [2], 20.5 µM.
Consider `COCCN1CCN(c2ccc(Cl)cc2C(=O)Nc2ccc(CNC(=O)OCc3cccnc3)cc2)CC1`, for which the values for the half-maximal inhibitory concentration (IC50) (in test [1]; with C6; in the test on U-251 [2]) were 1.01 µM, 1.76 µM and 10.5 µM, respectively.
Consider `CS(=O)(=O)N1CCN(c2ccccc2C(=O)Nc2ccc(CNC(=O)OCc3cccnc3)cc2)CC1`, for which the IC50 in [1] was 1.02 µM; in the test on C6, 0.85 µM; with U-251 [2], 5.42 µM.
With `COCCN1CCN(c2ccc(C(F)(F)F)cc2C(=O)Nc2ccc(CNC(=O)OCc3cccnc3)cc2)CC1`, the IC50 in test [1] is 8.58 µM; in the test with C6 it was 13.9 µM; with U-251 [2], over 30 µM.
On the same counts, the results for `O=C(NCc1ccc(NC(=O)c2ccccc2N2CCN(CC3CC3)CC2)cc1)OCc1cccnc1` are 1.08 µM, 0.8 µM and 10.6 µM.
On the same counts, the results for `COCCN1CCN(c2cc(F)ccc2C(=O)Nc2ccc(CNC(=O)OCc3cccnc3)cc2)CC1` are 0.53 µM, 0.22 µM and 2.3 µM.
For the compound `COCCN1CCN(c2ccccc2C(=O)Nc2ccc(CNC(=O)OCc3cccnc3)cc2)CC1`, the IC50 is 0.4 µM in test [1], 0.24 µM in the test on C6 and 3.36 µM in the test on U-251 [2].
On to `CN1CCN(c2ccccc2C(=O)Nc2ccc(CNC(=O)OCc3cccnc3)cc2)CC1`, for which the results for the IC50 (in test [1]; in the test with C6; in the test with U-251 [2]) were 1.25 µM, 0.52 µM and 6.25 µM, respectively.
As for `Cn1nnc2c(C(N)=O)ncn2c1=O` [TEMOZOLOMIDE], the viability at 6 µM in the test with U-251 [3] came out at 96.2%. In addition, the Activity with U-251 [4] was 0.49%; in test [5], 0.98%; in the test on U-251 [6] it was 1.6%; with U-251 [7], 1.73%; in test [9] it was 2.5%; in [12], 0.27%. Further, the IC50 (in test [1]; in the test on C6; in the test on U-251 [2]) was over 30 µM each time. In addition, the result in the test with U-87MG ATCC [8] and with U-87MG ATCC [11] was Active. Further, the viability at 1.2 µM in [10] came out at 96.2%.
As for `CC(C)N1CCN(c2ccccc2C(=O)Nc2ccc(CNC(=O)OCc3cccnc3)cc2)CC1`, the half-inhibitory concentration (IC50) in test [1] came out at 0.25 µM; in the test on C6, 0.41 µM; in the test with U-251 [2], 6.09 µM.
For the compound `COCCN1CCN(c2ccc(C)cc2C(=O)Nc2ccc(CNC(=O)OCc3cccnc3)cc2)CC1`, the IC50 amounted to 1.9 µM in test [1], 1.29 µM in the test on C6 and 12.7 µM in the test on U-251 [2].
As for `O=C(NCc1ccc(NC(=O)c2ccccc2N2CCN(CCF)CC2)cc1)OCc1cccnc1`, the IC50 stood at 0.41 µM in test [1], 0.46 µM in the test on C6 and 5.89 µM with U-251 [2].
As for `COCCN1CCN(c2ccc(N)cc2C(=O)Nc2ccc(CNC(=O)OCc3cccnc3)cc2)CC1`, the IC50 in test [1] came to 0.56 µM; in the test on C6 it was 0.26 µM; with U-251 [2], 4 µM.
On the same counts, the results for `COCCN1CCN(c2ccc(NC(=O)OC(C)(C)C)cc2C(=O)Nc2ccc(CNC(=O)OCc3cccnc3)cc2)CC1` are over 30 µM, over 30 µM and over 30 µM.
Taken in the same sequence, the figures for `COCCN1CCN(c2c(C)cccc2C(=O)Nc2ccc(CNC(=O)OCc3cccnc3)cc2)CC1` were 1.01 µM, 0.44 µM and 9.29 µM.
On the same counts, the results for `O=C(NCc1ccc(NC(=O)c2ccccc2N2CCN(CCO)CC2)cc1)OCc1cccnc1` are 0.64 µM, 0.29 µM and 3.23 µM.
For the compound `O=C(NCc1ccc(NC(=O)c2ccccc2N2CCOCC2)cc1)OCc1cccnc1`, the results for the IC50 (in test [1]; with C6; with U-251 [2]) were 0.89 µM, 4.82 µM and 6.11 µM, respectively.
On the same counts, the results for `COCCN1CCN(c2ccc(-c3ccccc3)cc2C(=O)Nc2ccc(CNC(=O)OCc3cccnc3)cc2)CC1` are over 30 µM, over 30 µM and over 30 µM.
Taken in the same sequence, the figures for `Nc1ccccc1NC(=O)c1ccc(CNC(=O)OCc2cccnc2)cc1` [ENTINOSTAT] were 4.34 µM, 0.33 µM and over 30 µM.
On to `COCCN1CCN(c2ccc(Br)cc2C(=O)Nc2ccc(CNC(=O)OCc3cccnc3)cc2)CC1`, for which the figures for the concentration for half-maximal inhibition (IC50) (in test [1]; in the test with C6; with U-251 [2]) were 2.66 µM, 2.65 µM and 24.7 µM, respectively.
In the case of `CCN1CCN(c2ccccc2C(=O)Nc2ccc(CNC(=O)OCc3cccnc3)cc2)CC1`, the results for the half-maximal inhibitory concentration (IC50) (in test [1]; in the test with C6; in the test on U-251 [2]) were 0.43 µM, 0.36 µM and 4.55 µM, respectively.
Taken in the same sequence, the figures for `O=C(NCc1ccc(NC(=O)c2ccccc2N2CCN(C3CCC3)CC2)cc1)OCc1cccnc1` were 0.62 µM, 1.03 µM and 4.05 µM.
For `COCCN1CCN(c2cccc(F)c2C(=O)Nc2ccc(CNC(=O)OCc3cccnc3)cc2)CC1`, the results for the IC50 (in test [1]; in the test with C6; in the test with U-251 [2]) were 4 µM, 0.79 µM and 25 µM, respectively.
Consider `O=C(NCc1ccc(NC(=O)c2ccccc2N2CCN(C3CC3)CC2)cc1)OCc1cccnc1`, for which the 50% inhibitory concentration (IC50) stood at 1.04 µM in test [1], 1.12 µM in the test with C6 and 2.7 µM in the test on U-251 [2].
On the same counts, the results for `O=C(NCc1ccc(NC(=O)c2ccccc2N2CCN(C3COC3)CC2)cc1)OCc1cccnc1` are 0.49 µM, 0.57 µM and 2.35 µM.
Taken in the same sequence, the figures for `COCCN1CCN(c2cc(C)ccc2C(=O)Nc2ccc(CNC(=O)OCc3cccnc3)cc2)CC1` were 0.53 µM, 0.89 µM and 2.97 µM.
On the same counts, the results for `CCCN1CCN(c2ccccc2C(=O)Nc2ccc(CNC(=O)OCc3cccnc3)cc2)CC1` are 0.42 µM, 0.36 µM and 6.79 µM.

The values above are taken from ChEMBL document CHEMBL5131385, “Novel piperazine based benzamide derivatives as potential anti-glioblastoma agents inhibiting cell proliferation and cell cycle progression” (Eur J Med Chem, 2022).
